Results reported in paper PMC9412555, “Benzothiazole Derivatives Endowed with Antiproliferative Activity in Paraganglioma and Pancreatic Cancer Cells: Structure–Activity Relationship Studies and Target Prediction Analysis” (Pharmaceuticals, 2022).

How the values were obtained:
[1] = tested on: HFF-1; experiment: MTT cell viability assay, normal fibroblasts HFF-1; format: cell-based, human; details: 72 h; for IC50: HFF-1 normal cells, MTT
Description: All compounds were dissolved in DMSO (stock solutions) and then diluted in culture media to the final working concentrations. […] The effects of compounds 4a-p and 2b on cancer cell viability were tested by an MTT assay (Sigma-Aldrich, St. Louis, MO, USA), as described by Florio et al. [17]. In the initial screening all compounds were tested at a one-point screening concentration of 75 μM for 72 h (five replica wells per each condition).
IC50 values were extrapolated from concentration–response curves and calculated using the CompuSyn software [45]. […] SI values were calculated as previously described [46]. Comparisons of mean values were performed using an unpaired Student’s t-test. For multiple comparisons, a one-way ANOVA followed by Dunnett’s test were employed. A p-value < 0.05 was estimated as statistically significant.

[2] = tested on: PTJ64i; experiment: MTT cell viability assay, PTJ64i; format: cell-based; details: for Selectivity Index (SI): IC50 in normal (HFF-1) fibroblast cells/IC50 in PTJ64i; for IC50: PTJ64i paraganglioma, MTT, 72 h
Description: (§1) Compounds 4a–p were submitted to a preliminary MTT assay at a one-point screening concentration of 75 μM for 72 h, including 2b as a reference compound (Figure 3). […] The presence of the electron-donating methoxy group decreased the activity of 2b, in both the para and meta positions. […] Specifically, these compounds, namely 4d, 4e, 4f, 4h, 4i, 4j, 4k, 4l, and 4m, were tested at concentrations of 3, 6, 12 and 24 µM for 72 h. In addition, the nine compounds, together with 2b, were tested against human fibroblasts HFF-1, in order to evaluate their selectivity against tumor cells, as compared to normal cells. Effects on cancer or normal cell viability were extrapolated from concentration–response curves and are expressed as IC50 values in Table 2.
(§2) Pancreatic cancer (AsPC-1, BxPC-3, and Capan-2), paraganglioma (PTJ86i and PTJ64i) and normal fibroblast (HFF-1) cell lines were cultured as previously described. All compounds were dissolved in DMSO (stock solutions) and then diluted in culture media to the final working concentrations. In this way, the solutions were completely clear and devoid of any undissolved material by microscopic inspection. […] The effects of compounds 4a-p and 2b on cancer cell viability were tested by an MTT assay (Sigma-Aldrich, St. Louis, MO, USA), as described by Florio et al.. In the initial screening all compounds were tested at a one-point screening concentration of 75 μM for 72 h (five replica wells per each condition). […] For combined treatments, the experimental design was made according to the Chou–Talalay method for drug combination studies, as previously described.
(§3) IC50 values were extrapolated from concentration–response curves and calculated using the CompuSyn software. […] Based on this analysis, a CI < 1 indicates synergism, a CI = 1 indicates additive effects and a CI > 1 indicates antagonism. SI values were calculated as previously described. Comparisons of mean values were performed using an unpaired Student’s t-test. For multiple comparisons, a one-way ANOVA followed by Dunnett’s test were employed. A p-value < 0.05 was estimated as statistically significant.

[3] = tested on: Capan-2; experiment: MTT cell viability assay, Capan-2; format: cell-based; details: for Inhibition Rate of Cell Viability / IC50: 72 h; for IC50: Capan-2 pancreatic cancer, MTT; for Selectivity Index (SI): IC50 in normal (HFF-1) fibroblast cells/IC50 in Capan-2
Description: as §1, §2, §3

[4] = tested on: pancreatic (AsPC-1, BxPC-3, and Capan-2) and paraganglioma (PTJ64i and PTJ86i) cancer cell lines; experiment: One-point MTT screening at 75 µM in cancer cell lines; format: cell-based; details: one-point screening concentration of 75 μM for 72 h, five cancer cell lines
Description: as §1, §2
Figure 3 Screening of the effects of novel derivatives (4a–p) on the viability of pancreatic (AsPC-1, BxPC-3, and Capan-2) and paraganglioma (PTJ64i and PTJ86i) cancer cell lines. The lead compound 2b was included as a reference and the histograms show the relative decrease of cancer cell viability observed after treatments, as compared to 2b. Cell viability was assessed by an MTT assay using compounds at 75 µM for 72 h. Data shown are the means ± SD of duplicate experiments with quintuplicate determinations and are calculated as ratios relative to the reference compound 2b (dashed line).

[5] = tested on: PTJ86i; experiment: MTT cell viability assay, PTJ86i; format: cell-based; details: for Selectivity Index (SI): IC50 in normal (HFF-1) fibroblast cells/IC50 in PTJ86i; for IC50: PTJ86i paraganglioma, MTT, 72 h
Description: as §1, §2, §3

[6] = tested on: BxPC-3; experiment: MTT cell viability assay, BxPC-3; format: cell-based; details: for Inhibition Rate of Cell Viability / IC50: 72 h; for IC50: BxPC-3 pancreatic cancer, MTT; for Selectivity Index (SI): IC50 in normal (HFF-1) fibroblast cells/IC50 in BxPC-3
Description: as §1, §2, §3

[7] = tested on: AsPC-1; experiment: MTT cell viability assay, AsPC-1; format: cell-based; details: for Inhibition Rate of Cell Viability / IC50: 72 h; for IC50: AsPC-1 pancreatic cancer, MTT; for Selectivity Index (SI): IC50 in normal (HFF-1) fibroblast cells/IC50 in AsPC-1
Description: as §1, §2, §3

Row | Compound | IC50 ([1]; Homo sapiens) [µM] | Selectivity Index (SI) [2] | IC50 [2] [µM] | IC50 ([3]; Homo sapiens) [µM] | Selectivity Index (SI) [3] | effect on cancer cell viability, potency compared with 2b [4] | Selectivity Index (SI) [5] | IC50 [5] [µM] | IC50 ([6]; Homo sapiens) [µM] | Selectivity Index (SI) [6] | IC50 ([7]; Homo sapiens, ASPC1) [µM] | Selectivity Index (SI) [7] | melting point | other results
1 | CC(=O)Nc1cccc(NC(=O)C(Sc2nc3cc(Cl)ccc3s2)c2ccccc2)c1 (stereo not shown) [4l, N-(3-Acetamidophenyl)-2-[(5-chlorobenzo[d]thiazol-2-yl)thio]-2-phenylacetamide] | 67.1 | 6.62 | 10.1 | 33.8 | 1.99 | greater antiproliferative activity than 2b | 3.37 | 19.9 | 13.7 | 4.91 | 14.8 | 4.54 | – | Inhibition Rate of Cell Viability ([1]; HFF-1, 4l 0.5 µM): 0.00%; Inhibition Rate of Cell Viability ([1]; HFF-1, 4l 5 µM): 1.00%; Inhibition Rate of Cell Viability ([1]; HFF-1, 4l 50 µM): 17.69%; Inhibition Rate of Cell Viability ([3]; Capan-2, 4l 0.5 µM): 9.34%; Inhibition Rate of Cell Viability ([3]; Capan-2, 4l 5 µM): 30.25%; Inhibition Rate of Cell Viability ([3]; Capan-2, 4l 50 µM): 43.30%; Inhibition Rate of Cell Viability ([6]; BxPC-3, 4l 0.5 µM): 6.00%; Inhibition Rate of Cell Viability ([6]; BxPC-3, 4l 5 µM): 9.54%; Inhibition Rate of Cell Viability ([6]; BxPC-3, 4l 50 µM): 70.50%; Inhibition Rate of Cell Viability ([7]; AsPC-1, 4l 0.5 µM): 13.40%; Inhibition Rate of Cell Viability ([7]; AsPC-1, 4l 5 µM): 18.87%; Inhibition Rate of Cell Viability ([7]; AsPC-1, 4l 50 µM): 42.97%
2 | O=C(Nc1ccc(Cl)c(Cl)c1)C(Sc1nc2cc(Cl)ccc2s1)c1ccccc1 (stereo not shown) [4m, 2-[(5-Chlorobenzo[d]thiazol-2-yl)thio]-N-(3,4-dichlorophenyl)-2-phenyl Acetamide] | – | 1.32 | 7.84 | – | 0.77 | greater antiproliferative activity than 2b | 0.52 | 19.9 | – | 1.05 | – | 1.22 | – | IC50 [1]: 10.3 µM; IC50 [3]: 13.3 µM; IC50 [6]: 9.81 µM; IC50 [7]: 8.49 µM
3 | O=C(Nc1cccc(Cl)c1)C(Sc1nc2cc(Cl)ccc2s1)c1ccccc1 (stereo not shown) [4h, 2-[(5-Chlorobenzo[d]thiazol-2-yl)thio]-N-(3-chlorophenyl)-2-phenylacetamide] | 11.6 | – | 7.27 | 17.7 | – | greater antiproliferative activity than 2b | – | 16.6 | 12 | – | 12.2 | – | – | –
4 | O=C(Nc1cc(C(F)(F)F)ccc1Br)C(Sc1nc2cc(Cl)ccc2s1)c1ccccc1 (stereo not shown) [4p, N-[2-Bromo-5-(trifluoromethyl)phenyl]-2-[(5-chlorobenzo[d]thiazol-2-yl)thio]-2-phenylacetamide] | – | – | – | – | – | exception | – | – | – | – | – | – | 157 to 159 °C | –
5 | Nc1ccn([C@@H]2O[C@H](CO)[C@@H](O)C2(F)F)c(=O)n1 [GEM, gemcitabine, reference compound] | – | – | – | – | – | – | – | – | – | – | – | – | – | Inhibition Rate of Cell Viability ([3]; Capan-2, GEM 0.1 µM): 26.87%; Inhibition Rate of Cell Viability ([3]; Capan-2, GEM 1 µM): 27.22%; Inhibition Rate of Cell Viability ([3]; Capan-2, GEM 10 µM): 38.65%; Inhibition Rate of Cell Viability ([6]; BxPC-3, GEM 0.1 µM): 65.02%; Inhibition Rate of Cell Viability ([6]; BxPC-3, GEM 1 µM): 64.65%; Inhibition Rate of Cell Viability ([6]; BxPC-3, GEM 10 µM): 62.50%; Inhibition Rate of Cell Viability ([7]; AsPC-1, GEM 0.1 µM): 54.21%; Inhibition Rate of Cell Viability ([7]; AsPC-1, GEM 1 µM): 63.25%; Inhibition Rate of Cell Viability ([7]; AsPC-1, GEM 10 µM): 64.63%
6 | O=C(Nc1cccc(F)c1)C(Sc1nc2cc(Cl)ccc2s1)c1ccccc1 (stereo not shown) [4i, 2-[(5-Chlorobenzo[d]thiazol-2-yl)thio]-N-(3-fluorophenyl)-2-phenylacetamide] | 15 | 1.74 | 8.6 | 28.5 | 0.53 | greater antiproliferative activity than 2b | 1.28 | 11.7 | 18.6 | 0.81 | 14.8 | 1.01 | 151 to 153 °C | –
7 | CC(=O)Nc1ccc(NC(=O)C(Sc2nc3cc(Cl)ccc3s2)c2ccccc2)cc1 (stereo not shown) [4f, N-(4-Acetamidophenyl)-2-[(5-chlorobenzo[d]thiazol-2-yl)thio]-2-phenylacetamide] | 6.54 | 0.53 | 12.3 | 20.1 | 0.33 | greater antiproliferative activity than 2b | 0.51 | 12.8 | 18.9 | 0.35 | 10 | 0.65 | 243 °C (dec.) | –
8 | COc1ccc(NC(=O)C(Sc2nc3cc(Cl)ccc3s2)c2ccccc2)cc1 (stereo not shown) [4a, 2-[(5-Chlorobenzo[d]thiazol-2-yl)thio]-N-(4-methoxyphenyl)-2-phenylacetamide] | – | – | – | – | – | – | – | – | – | – | – | – | 190 °C (dec.) | –
9 | O=C(Nc1cc([N+](=O)[O-])ccc1Br)C(Sc1nc2cc(Cl)ccc2s1)c1ccccc1 (stereo not shown) [4n, N-(2-Bromo-5-nitrophenyl)-2-[(5-chlorobenzo[d]thiazol-2-yl)thio]-2-phenyl Acetamide] | – | – | – | – | – | exception | – | – | – | – | – | – | – | –
10 | O=C(Nc1cccc(C(F)(F)F)c1)C(Sc1nc2cc(Cl)ccc2s1)c1ccccc1 (stereo not shown) [4j, 2-[(5-Chlorobenzo[d]thiazol-2-yl)thio]-2-phenyl-N-[3-(trifluoromethyl)phenyl]acetamide] | 18.1 | – | 11.2 | 24.2 | – | greater antiproliferative activity than 2b | – | 17.5 | 14 | – | 9.53 | – | – | –
11 | O=C(Nc1ccc(C(F)(F)F)cc1)C(Sc1nc2cc(Cl)ccc2s1)c1ccccc1 (stereo not shown) [4d, 2-[(5-Chlorobenzo[d]thiazol-2-yl)thio]-2-phenyl-N-[4-(trifluoromethyl)phenyl] Acetamide] | – | 1.36 | 6.79 | – | 1.03 | greater antiproliferative activity than 2b | 0.74 | 12.4 | – | 2.31 | – | 1.20 | – | IC50 [1]: 9.23 µM; IC50 [3]: 8.97 µM; IC50 [6]: 3.99 µM; IC50 [7]: 7.66 µM
12 | O=C(Nc1ccc(C(F)(F)F)cc1Br)C(Sc1nc2cc(Cl)ccc2s1)c1ccccc1 (stereo not shown) [4o, N-[2-Bromo-4-(trifluoromethyl)phenyl]-2-[(5-chlorobenzo[d]thiazol-2-yl)thio]-2-phenylacetamide] | – | – | – | – | – | exception | – | – | – | – | – | – | 179 to 180 °C | –
13 | O=C(Nc1ccc(Cl)cc1)C(Sc1nc2cc(Cl)ccc2s1)c1ccccc1 (stereo not shown) [4b, 2-[(5-Chlorobenzo[d]thiazol-2-yl)thio]-N-(4-chlorophenyl)-2-phenylacetamide] | – | – | – | – | – | – | – | – | – | – | – | – | 178 to 180 °C | –
14 | COc1cccc(NC(=O)C(Sc2nc3cc(Cl)ccc3s2)c2ccccc2)c1 (stereo not shown) [4g, 2-[(5-Chlorobenzo[d]thiazol-2-yl)thio]-N-(3-methoxyphenyl)-2-phenylacetamide] | – | – | – | – | – | exception | – | – | – | – | – | – | 160 to 162 °C | –
